Measured values published in ChEMBL document CHEMBL1144194, “Initial SAR studies on apamin-displacing 2-aminothiazole blockers of calcium-activated small conductance potassium channels” (Bioorg Med Chem Lett, 2008).
Calls of active or inactive are those of the source. No cut-off for these calls is given here. Peptide text beside a SMILES is read from it.

Legend:
[1] = Inhibition of guinea-pig Kca channel; design: species or system Cavia porcellus
[2] = biological target: T1, Small conductance calcium-activated potassium channel protein 3 (Homo sapiens, UniProt Q9UGI6); test: Inhibition of Kca2.3 channel expressed in HEK293 cells by thallium flux assay; format: cell-based
T1 sequence (Q9UGI6 whole entry): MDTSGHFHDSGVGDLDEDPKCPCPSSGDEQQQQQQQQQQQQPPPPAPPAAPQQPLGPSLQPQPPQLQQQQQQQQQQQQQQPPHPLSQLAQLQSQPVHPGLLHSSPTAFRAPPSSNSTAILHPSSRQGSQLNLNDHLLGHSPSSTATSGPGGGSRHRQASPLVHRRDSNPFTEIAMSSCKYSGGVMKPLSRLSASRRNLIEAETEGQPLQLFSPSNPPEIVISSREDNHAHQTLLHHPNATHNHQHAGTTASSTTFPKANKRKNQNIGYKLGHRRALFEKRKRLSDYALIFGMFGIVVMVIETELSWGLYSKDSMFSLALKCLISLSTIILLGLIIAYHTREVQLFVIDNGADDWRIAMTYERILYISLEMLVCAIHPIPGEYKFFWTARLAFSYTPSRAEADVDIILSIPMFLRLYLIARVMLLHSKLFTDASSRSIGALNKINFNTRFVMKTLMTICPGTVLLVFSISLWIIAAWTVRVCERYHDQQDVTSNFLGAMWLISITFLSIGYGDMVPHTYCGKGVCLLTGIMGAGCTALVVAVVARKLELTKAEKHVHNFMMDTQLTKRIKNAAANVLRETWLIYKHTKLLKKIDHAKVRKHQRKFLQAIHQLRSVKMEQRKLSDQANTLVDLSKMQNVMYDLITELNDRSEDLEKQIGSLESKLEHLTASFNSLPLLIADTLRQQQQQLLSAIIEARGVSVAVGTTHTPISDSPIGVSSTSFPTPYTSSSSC

[3] = biological target: T1, Small conductance calcium-activated potassium channel protein 3; test: Inhibition of Kca2.3 channel expressed in HEK293 cells at 30 uM by thallium flux assay; format: cell-based
[4] = Inhibition of Kca channel
[5] = biological target: Intermediate conductance calcium-activated potassium channel protein 4 (Homo sapiens) (UniProt O15554); test: Inhibition of Kca3.1 channel expressed in HEK293 cells at 30 uM by thallium flux assay; format: cell-based
Intermediate conductance calcium-activated potassium channel protein 4 (Homo sapiens), sequence (O15554 whole entry): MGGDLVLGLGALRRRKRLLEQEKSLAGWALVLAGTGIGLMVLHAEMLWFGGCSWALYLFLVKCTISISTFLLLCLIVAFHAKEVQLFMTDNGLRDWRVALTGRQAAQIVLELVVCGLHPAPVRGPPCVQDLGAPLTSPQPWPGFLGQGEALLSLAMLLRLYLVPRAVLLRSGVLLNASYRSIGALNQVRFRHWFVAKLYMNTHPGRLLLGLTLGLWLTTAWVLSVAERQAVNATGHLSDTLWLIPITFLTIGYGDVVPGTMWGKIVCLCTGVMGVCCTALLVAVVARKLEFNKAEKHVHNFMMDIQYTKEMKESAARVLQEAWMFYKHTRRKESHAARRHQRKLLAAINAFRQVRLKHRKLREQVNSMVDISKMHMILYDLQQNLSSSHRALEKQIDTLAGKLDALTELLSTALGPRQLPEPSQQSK

[6] = biological target: T1, Small conductance calcium-activated potassium channel protein 3; test: Displacement of [125I]apamin from Kca2.3 channel expressed in HEK293 cells by scintillation proximity assay; format: cell-based
[7] = biological target: T1, Small conductance calcium-activated potassium channel protein 3; test: Inhibition of Kca2.3 channel expressed in HEK293 cells by electrophysiology assay; format: cell-based
[8] = biological target: T2, Small conductance calcium-activated potassium channel protein 2 (Homo sapiens, UniProt Q9H2S1); test: Displacement of [125I]apamin from Kca2.2 channel expressed in HEK293 cells; format: cell-based
T2 sequence (Q9H2S1 whole entry): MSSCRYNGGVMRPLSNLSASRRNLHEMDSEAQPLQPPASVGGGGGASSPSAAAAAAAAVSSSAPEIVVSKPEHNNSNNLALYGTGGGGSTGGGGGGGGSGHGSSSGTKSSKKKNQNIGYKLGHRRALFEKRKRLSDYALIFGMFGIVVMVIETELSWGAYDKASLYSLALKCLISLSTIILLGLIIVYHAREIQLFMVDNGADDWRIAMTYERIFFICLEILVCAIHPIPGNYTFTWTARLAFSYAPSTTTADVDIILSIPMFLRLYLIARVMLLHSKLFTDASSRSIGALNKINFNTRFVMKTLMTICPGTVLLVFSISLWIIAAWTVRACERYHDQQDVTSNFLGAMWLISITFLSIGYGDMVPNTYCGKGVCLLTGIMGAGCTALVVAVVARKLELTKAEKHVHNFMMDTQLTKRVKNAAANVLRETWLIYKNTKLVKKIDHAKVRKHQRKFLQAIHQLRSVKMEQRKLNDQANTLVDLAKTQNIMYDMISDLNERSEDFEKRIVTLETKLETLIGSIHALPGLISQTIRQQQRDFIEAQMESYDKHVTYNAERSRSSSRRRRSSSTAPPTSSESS

[9] = biological target: Small conductance calcium-activated potassium channel protein 1 (Homo sapiens, UniProt Q92952); test: Inhibition of Kca2.1 channel expressed in HEK293 cells by thallium flux assay; format: cell-based
Small conductance calcium-activated potassium channel protein 1, sequence (Q92952 whole entry): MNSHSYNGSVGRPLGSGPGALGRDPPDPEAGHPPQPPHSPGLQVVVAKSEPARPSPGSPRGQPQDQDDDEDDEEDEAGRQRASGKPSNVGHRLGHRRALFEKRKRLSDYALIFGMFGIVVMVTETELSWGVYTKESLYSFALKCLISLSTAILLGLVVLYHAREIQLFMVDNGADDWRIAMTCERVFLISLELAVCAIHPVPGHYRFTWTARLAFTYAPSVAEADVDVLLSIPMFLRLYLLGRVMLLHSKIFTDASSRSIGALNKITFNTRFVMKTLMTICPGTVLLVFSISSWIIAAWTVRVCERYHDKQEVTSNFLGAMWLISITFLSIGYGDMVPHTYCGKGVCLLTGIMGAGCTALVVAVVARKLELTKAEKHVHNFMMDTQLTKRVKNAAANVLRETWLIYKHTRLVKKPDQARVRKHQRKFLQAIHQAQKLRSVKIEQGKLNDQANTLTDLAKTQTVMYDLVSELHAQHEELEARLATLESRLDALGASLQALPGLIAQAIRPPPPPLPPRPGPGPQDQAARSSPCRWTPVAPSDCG

[10] = biological target: Intermediate conductance calcium-activated potassium channel protein 4 (Homo sapiens) (UniProt O15554); test: Inhibition of Kca3.1 channel expressed in HEK293 cells by thallium flux assay; format: cell-based
[11] = biological target: T2, Small conductance calcium-activated potassium channel protein 2; test: Inhibition of Kca2.2 channel expressed in HEK293 cells by thallium flux assay; format: cell-based

Question: With CC[C@H](C)[C@H](NC(=O)[C@H](CS)NC(=O)[C@H](CCCCN)NC(=O)CNC(=O)[C@H](CC(C)C)NC(=O)[C@H](CC(C)C)NC(=O)CNC(=O)[C@H](CC(C)C)NC(=O)[C@H](CO)NC(=O)[C@H](CCCNC(=N)N)NC(=O)[C@H](CS)NC(=O)[C@H](CO)NC(=O)[C@H](CC(C)C)NC(=O)[C@H](CCC(N)=O)NC(=O)[C@H](CS)NC(=O)[C@H](CCSC)NC(=O)[C@H](CCCNC(=N)N)NC(=O)[C@H](CC(C)C)NC(=O)[C@H](CC(N)=O)NC(=O)[C@H](CS)NC(=O)[C@H](Cc1ccccc1)NC(=O)[C@H](C)N)C(=O)NCC(=O)N[C@@H](CC(=O)O)C(=O)N[C@@H](CCCCN)C(=O)N[C@@H](CS)C(=O)N[C@@H](CCC(=O)O)C(=O)N[C@@H](CS)C(=O)N[C@H](C(=O)N[C@@H](CCCCN)C(=O)N[C@@H](Cc1cnc[nH]1)C(=O)O)C(C)C [Scyllatoxin] (H-AFCNLRMCQLSCRSLGLLGKCIGDKCECVKH-OH) as the compound, how does the Ki [1] read?
Answer: 0.075 nM

Question: For Ic1ccc(Nc2nc(-c3ccccn3)cs2)nc1, which IC50 [2] is on record?
Answer: > 30 µM

Question: And the inhibition [3]?
Answer: 29%

Question: Which results are given for c1ccc(Cc2nc(-c3ccccn3)cs2)nc1?
Answer: IC50 [2]: > 30 µM; inhibition [3]: 15%

Question: Which IC50 [4] does the source give for c1cc2cc(c1)C[n+]1ccc(c3ccccc31)NCc1ccc(cc1)CNc1cc[n+](c3ccccc13)C2 here?
Answer: 3 nM

Question: For c1ccc(-c2csc(Nc3ccncc3)n2)nc1, which IC50 [2] is on record?
Answer: > 30 µM

Question: And the inhibition [3]?
Answer: 14%

Question: Which inhibition [5] does the source give for Cc1ccnc(Nc2nc(-c3ccccn3)cs2)c1 here?
Answer: 10%

Question: What about the inhibition [3] of the same compound?
Answer: 98%

Question: What does the source list for FC(F)(F)c1cnc(Nc2nc(-c3ccccn3)cs2)c(Cl)c1?
Answer: IC50 [2]: > 30 µM; inhibition [3]: 8%

Question: For c1ccc2c(c1)CCC[C@H]2Nc1nc2ccccc2[nH]1, which IC50 [4] is on record?
Answer: 500 nM

Question: With c1ccc(Nc2nc(-c3ccccc3)cs2)cc1 as the compound, how does the IC50 [2] read?
Answer: > 30 µM

Question: What about the inhibition [3] of the same compound?
Answer: 18%

Question: With c1ccc(Nc2nc(-c3cccnc3)cs2)nc1 as the compound, how does the IC50 [2] read?
Answer: > 30 µM

Question: What about the inhibition [3] of the same compound?
Answer: 14%

Question: For c1ccc(Nc2nc(-c3ccncc3)cs2)nc1, which IC50 [2] is on record?
Answer: > 30 µM

Question: Which inhibition [3] does the source give for c1ccc(Nc2nc(-c3ccccn3)cs2)cc1 here?
Answer: 9%

Question: Which inhibition [3] does the source give for c1ccc(-c2csc(Nc3cccnc3)n2)nc1 here?
Answer: 45%

Question: Which IC50 [2] does the source give for c1ccc(-c2csc(-c3ccccn3)n2)nc1 here?
Answer: > 30 µM

Question: What about the inhibition [3] of the same compound?
Answer: 16%

Question: With c1ccc(Nc2nc(-c3ccccn3)cs2)nc1 as the compound, how does the IC50 [6] read?
Answer: 25 nM

Question: And the IC50 [7]?
Answer: 290 nM

Question: What about the IC50 [2] of the same compound?
Answer: 0.543 µM

Question: And the IC50 [8]?
Answer: 543 nM

Question: What about the IC50 [9] of the same compound?
Answer: 43 nM

Question: What about the Activity [10] of the same compound?
Answer: inactive

Question: And the inhibition [3]?
Answer: 89%

Question: And the IC50 [11]?
Answer: 123 nM

Question: With c1ccc(-c2csc(Nc3ncccn3)n2)nc1 as the compound, how does the IC50 [2] read?
Answer: > 30 µM

Question: And the inhibition [3]?
Answer: 24%

Question: What does the source list for Cc1cc(N)c2ccccc2[n+]1CCCCCCCCCC[n+]1c(C)cc(N)c2ccccc21 [DEQUALINIUM CHLORIDE]?
Answer: IC50 [7]: 2000 nM; IC50 [2]: 1.3 µM; IC50 [4]: 1000 nM
